This note sets out measurements from US6992100B2, “sPLA2 inhibitors” (Eli Lilly and Company, priority 2001, dated 2006).

Data set [1] deals with T1, recombinant human secreted phospholipase A2 (Homo sapiens, UniProt P14555).
T1 sequence (P14555 21-144): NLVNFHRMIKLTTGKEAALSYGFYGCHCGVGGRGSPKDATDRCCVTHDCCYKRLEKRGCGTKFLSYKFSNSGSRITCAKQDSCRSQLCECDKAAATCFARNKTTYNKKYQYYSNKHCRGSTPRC
The data set can be described thus: chromogenic assay of recombinant human secreted phospholipase A2 inhibition. It counts as biochemical. As to conditions: diheptanoyl thio-PC substrate, pH 7.5, 40° C. 30 minutes, absorbance at 405 nanometers, triplicate. The text has this:
The following chromogenic assay procedure was used to identify and evaluate inhibitors of recombinant human secreted phospholipase A2. The assay described herein has been adapted for high volume screening using 96 well microtiter plates. A general description of this assay method is found in the article, “Analysis of Human Synovial Fluid Phospholipase A2 on Short Chain Phosphatidylcholine-Mixed Micelles: Development of a Spectrophotometric Assay Suitable for a Microtiterplate Reader”, by Laure J. Reynolds, Lori L. Hughes, and Edward A. Dennis, Analytical Biochemistry, 204, pp. 190–197, 1992 (the disclosure of which is incorporated herein by reference): […]
A measured volume of racemic dipheptanoyl thio PC supplied in chloroform at a concentration of 100 mg/ml is taken to dryness and redissolved in 10 millimolar TRITON X-100™ nonionic detergent aqueous solution. […]
5. Read absorbance of wells at 405 nanometers with an automatic plate reader.
Tests were done in triplicate. […] Compounds initially found to be active were re-assayed to confirm their activity and, if sufficiently active, IC50 values were determined. […] In all cases, % inhibition measured at 405 nanometers generated by enzyme reactions containing inhibitors relative to the uninhibited control reactions was determined. […]

Where a name gives a salt, the structure may show the parent alone.

Consider `NC(=O)c1cccc2c1c1c(OCC(=O)O)c3ccccc3cc1n2Cc1ccccc1` [Example 1, (5-Benzyl-1-carbamoyl-5H-benzo[b]carbazol-11-yloxy)-acetic acid, sodium salt], for which the IC50 in data set [1] is 38.6 µM.
Regarding `NC(=O)c1c2ccsc2nc2c1c1ccccc1n2Cc1ccccc1` [Example 3, 9-Benzyl-9H-1-thia-9,10-diaza-cyclopenta[b]fluorene-4-carboxylic acid amide], the melting point was 242 to 245 °C.
On to `NC(=O)c1cccc2c1c1c(OCC(=O)O)c3c(cc1n2Cc1ccccc1)CCCC3` [Example 2, (5-Benzyl-1-carbamoyl-7,8,9,10-tetrahydro-5H-benzo[b]carbazol-11-yloxy)-acetic acid, sodium salt], for which, in data set [1], the IC50 is 410 µM.
